According to patent US20240122946A9, “METHODS AND COMPOSITIONS FOR TREATING 25-HYDROXYVITAMIN D DEFICIENCY” (Board of Supervisors of Louisiana State University and …, priority 2019, published 2024):
Values belong to the compound of their own block, whether it stands above or below them.

Columns and labels:
[1] = system: C2C12 myotubes; test: LC, TNF-α and 1,25(OH)2VD treatment of myotubes (GCLC-KD, PGC-1α KD); format: cell-based, mouse
Experimental: (§1) Cell culture and treatment: FL83B mouse hepatocytes (ATCC®, Manassas, Va.) were cultured and maintained in F-12K complete medium. Mouse C2C12 myoblasts were cultured at 37° C. in an atmosphere of 5% CO2 in growth medium (GM) consisting of Dulbecco's modified Eagle's medium (DMEM) supplemented with heat-inactivated 10% fetal bovine serum and antibiotics (penicillin and streptomycin). […] The control siRNA, a scrambled nonspecific RNA duplex that shares no sequence homology with any of the genes, was used as a negative control.
(§2) Cells were transiently transfected with 0-100 nM siRNA complex using Lipofectamine™2000 transfection reagent (Invitrogen, Carlsbad, Calif.). […] TNF-α (0-250 μg/mL) was exposed for 6 h to differentiated myotubes.
(§3) Analysis of mRNA expression using quantitative polymerase chain reaction: Total RNA was extracted from cells or tissue using the TRIzol reagent (Life Technologies) following the manufacturer's instructions. The quality and quantity of the extracted RNA were determined on a NanoDrop spectrophotometer (Thermo Scientific). First-strand complementary DNA (cDNA) synthesis was performed using a commercially available High Capacity RNA-To-cDNA kit (Life Technologies) in a final reaction volume of 20 μL. Amplification of cDNA was performed on a 7900HT Real Time polymerase chain reaction (PCR) system (Applied Biosystems). PCR conditions were 2 min at 50° C., 10 min at 95° C., 40 cycles of 95° C. for 15 s, and then 60° C. for 60 s. Glyceraldehyde-3-phosphate dehydrogenase (GAPDH) was used as a housekeeping gene to normalize threshold cycle (CT) values.
(§4) Levels of GSH in plasma, tissues, and cultured cells were determined using HPLC. This assay determines total GSH status. Cell viability was determined using the Alamar Blue method (Alamar Biosciences, Sacramento, Calif.). Oxidative stress was assessed by the quantification of protein carbonyls and MDA using Protein Carbonyl Colorimetric and TBARS Assay Kits, respectively (Cayman Chemical, Ann Arbor, Mich.). Measurements of HbA1c, Complete Blood Count, glucose, and calcium were done at the clinical chemistry laboratories of LSUHSC-Shreveport. Due to limited amount of blood collected from each mouse, we borrowed diluents from the clinical laboratory and diluted the blood before taking it to the clinical laboratory, which reduced the amount of blood required for clinical tests. All chemicals were purchased from Sigma Chemical Co. (St. Louis, Mo.) unless otherwise mentioned.

[2] = system: FL83B mouse hepatocytes; test: LC and cholecalciferol treatment of hepatocytes (GCLC-KD, VDR-KD); format: cell-based
Experimental: as §1, §2, §3, §4

[3] = system: mice maintained on a VD-deficient HFD; test: Supplementation of mice on VD-deficient HFD: blood biomarkers; format: in vivo, mouse; conditions: VD 67 IU/kg BW, vs OO (vehicle) control
Experimental: Effect of supplementation with VD along with LC on plasma levels of GSH, 25(OH)VD, and IR, and on GSH and VD regulatory genes in liver and on GSH and glucose metabolism genes in muscle: Beginning at 5 weeks of age, male C57BL/6J mice were fed and maintained on a VD-deficient HFD and water ad libitum for 16 weeks. Mice were gavaged daily for the last 8 weeks with saline, olive oil (OO), LC (5 mg/kg BW), VD (67 IU/kg BW), or LC+VD to investigate whether co-supplementation with GSH precursor has a better effect on blood levels of 25(OH)VD compared with levels achieved using VD alone. VD was dissolved in OO and one group of mice was also gavaged with OO (vehicle) alone.
Animal studies. Male C57BL/6J mice (5 weeks old, 20-24 g) were purchased from The Jackson Laboratory and acclimatized in the institutional animal house for 1 week. Mice were divided into various groups by computer-generated randomization and then housed and labeled in individual cages. They were fasted overnight and then weighed. Blood glucose was assessed by tail prick using an Accu-Chek glucometer (Boehringer Mannheim Corp., Indianapolis, Ind.). BW and blood glucose were monitored weekly. Control animals were fed a normal diet (lower in fat), while animals in the HFD group were fed HFD for 16 weeks. For studies with VD-deficient animals, the mice were maintained on a VD-deficient HFD for 16 weeks.
In addition, two groups of mice maintained on the VD-deficient HFD were also simultaneously supplemented by oral gavage with either water or the same dose of the vehicle used for dissolving cholecalciferol (OO) (FIG. 5). The animals were maintained under standard housing conditions at 22° C. 2° C. with 12/12-h light/dark cycles. Normal diet, HFD, and VD-deficient HFD were purchased from The Jackson Laboratory. The amount of food intake was monitored at 12 and 16 weeks into the treatment period to assess consumption. At the end of 16 weeks, the animals were fasted overnight and then euthanized for analysis by exposure to isoflurane (Webster Veterinary Supply, Inc., Devens, Mass.). Blood was collected via heart puncture with a 19^1/2-gauge needle into heparinized Vacutainer tubes. Plasma was isolated after centrifuging the blood in a 4° C. centrifuge at 3000 rpm for 10 min. The livers were perfused with cold saline to free them of residual blood. Liver and gastrocnemius muscle were collected immediately, weighed, quickly diced, and frozen in liquid nitrogen at −80° C.
Dose justification for LC and vitamin D: While lc can be taken as a supplement, it is also formed in the body from methionine. An adult ingests about 500 mg LC from dietary sources, assuming that an average protein intake is 90 g/day and that LC is about 0.6% of total protein. Similarly, taking into account daily dietary intake and diet composition, mice consume 3-5 mg LC/kg BW. The LC/methionine content of protein varies with the source of the protein. The LC dose used in our studies, 5 mg/kg BW, is theoretically a supplementation onefold to twofold that of the LC ordinarily consumed by the mice, which could be considered both modest and safe. […]
25(OH)VD, 1,25(OH)2VD, VDBP, GSH, TNF-α, PTH, insulin, glucose, protein carbonyl, and MDA assays: Plasma levels of 25(OH) vitamin D were determined using an ELISA kit (Calbiotech, Spring Valley, Calif.) and 1,25(OH)2 vitamin D using another ELISA kit (My BioSource, San Diego, Calif.). Plasma VDBP quantification was carried out using a kit purchased from ALPCO Diagnostics (Salem, N.H.). […]

[4] = LC alone, compared with control VDR-KD cells
[5] = oral gavage 8 weeks, LC 5 mg/kg BW

Compound: C=C1/C(=C\C=C2/CCC[C@]3(C)[C@@H]([C@H](C)CCCC(C)(C)O)CC[C@@H]23)C[C@@H](O)C[C@@H]1O [1,25(OH)2VD, 1alpha,25-dihydroxyvitamin D3]
upregulation of NRF2 and GLUT-4 ([1]; PGC-1α KD myotubes): absent

CYP27A1 gene upregulation [2, 4]: not | VDBP gene expression [2, 4]: upregulation | oxidation of both proteins and lipids ([2]; LC, GSH-normal and GSH-deficient hepatocytes): reduced | GSH levels ([1]; LC 300 μM, 6 h): increases | TNF-α levels ([1]; LC 300 μM, 6 h, GCLC-normal and GCLC-KD myotubes): decrease
Compound: N[C@@H](CS)C(=O)O [LC, l-cysteine]

Compound: C=C1CC[C@H](O)C/C1=C/C=C1\CCC[C@]2(C)[C@@H]([C@H](C)CCCC(C)C)CC[C@@H]12 [VD, cholecalciferol]
IR (HOMA-IR) in blood [3, 5]: did not show effect | blood HbA1c [3, 5]: did not show effect | blood level of TNF-α [3, 5]: did not show effect | blood level of VDBP ([3]; oral gavage 8 weeks): did not show effect | blood level of GSH ([3]; oral gavage last 8 weeks of 16 weeks VD-deficient HFD, LC 5 mg/kg BW): did not show effect | effect on VD regulatory genes (mRNA) ([2]; cholecalciferol 10 nM, 22 h): stimulatory effect

VDR/PGC-1α/GLUT-4 gene expression ([1]; exogenous TNF-α, 6 h): downregulates
Compound: TNF-α
